Test results published in article PMC10363480 (Plant Communications, 2023).

System: mitochondria or chloroplast of Chlamydomonas reinhardtii
Assay: Subcellular localization of Venus reporter by epifluorescence microscopy (manual targeting assignment)
Format: cell-based
Settings: manual targeting assignment of the Venus reporter construct in Chlamydomonas: Neither / Mitochondria / Chloroplast / Dual, (partial) = partial targeting
Excerpt: In a bid to keep peptidase recognition sites intact, C-terminal elements were designed to start 10 residues upstream of the cleavage site, even though this slightly truncates TP helices. Peptides carrying the 15-amino-acid cTP N-terminus (cTP-N) will be denoted ^cP. Similarly, peptides with C-terminal elements from RCA1-cTP (cTP-C) or CAG2-mTP (mTP-C) will be denoted P^c or P^m, respectively. Peptide variants are used to drive the subcellular localization of a Venus fluorescent reporter protein, which was assessed using fluorescence microscopy; in Figure 2, an executive overview of observed Venus localization is presented for all constructs. […] Here, we use automated image segmentation to validate our subcellular localization assessment (Supplemental Figure 2, Supplemental text). […] The reader will be asked to return to Figure 2 throughout, with Figures 3 and 4 providing selected micrographs as examples highlighting particular points of interest.
Chlamydomonas TP sequences were amplified from genomic DNA extracted from strain T222+ (CC-5101). Templates for codon-optimized HA-RAMP, RP, and R→K modified TP sequences were obtained by gene synthesis (Eurofins Genomics). Correct assembly was verified by sequencing (Eurofins Genomics). Linear transformation cassettes were generated through restriction digestion with EcoRV (New England Biolabs).
Constructs were transformed into wild-type strain T222+ (CC-5101) using a protocol described previously ([Onishi and Pringle, 2016]), except using 4 μl of DNA at 2 μg/μl.
Strains with suspected mitochondrial targeting were treated with 0.1 μM MitoTracker Red CMXRos (Thermo Fisher Scientific) in growth medium for 30 min in the dark and washed with TAP prior to taking images.
Legend for Fig. S3 – S20. Three independent transformant lines (Strains 1-3) are shown for each combination of modifications (A-L), represented by a cartoon and a shorthand description (cf. Fig.
2). Where a construct was interpreted as generating reporter localization in mitochondria or […]
Epifluorescence microscopy images of typical cells for each strain are shown. MitoTracker fluorescence, false-coloured in cyan, indicates the position of mitochondria (although parts of the cell exterior are sometimes also stained). False-coloured yellow fluorescence from the Venus channel reports on the subcellular localization of the fluorescent reporter. Chlorophyll autofluorescence, shown in magenta, indicates the location of the chloroplast. Scale bars are 5µm. Brightness (Br.) was adjusted for clarity: fluorescence intensity values were restricted to the range shown for each channel by matching coloured rectangles. Intensity scales to 0 at the bottom of the panel, and to 65535 at the top.
On the right-hand side, quantitative information associated with each construct is shown. Data was normalized such that averages range from 0 to 1 across all constructs (cf. Fig S2). Individual cell measurements may exceed this range; for clarity, the range shown here is limited to -0.5 to 1.5, with outliers that have more extreme values shown as lying beyond a dashed line. Strain 1 is plotted as circles, strain 2 as squares, and strain 3 as diamonds. Venus: Fluorescence plate reader data of transformants screened for this construct (Venus fluorescence, accounting for cell density using linear regression of OD750 and chlorophyll fluorescence trained on ‘no venus’ control transformants). Transformants that were not selected after screening are shown as small grey circles. A colour code ranging from white (low Venus fluorescence) to black (high Venus fluorescence) is used for strains 1-3 and the average thereof. Automated image quantification data: pyr/chl: Venus channel signal in the pyrenoid relative to in the chlorophyll region; mt/cell: Venus channel signal in mitochondria relative to the whole cell. Each point corresponds to a single cell.
The colour code code is the same as that below distributions in Fig. S2, i.e. blue highlights the […]

| Sequence | Localisation |
| --- | --- |
| MQVTMKSSAVSGQRVGGARVATR [c.CH.R] | Neither |
| MQVTMKSSAVSGQRVGGARVATRLTQTAESFRGVSSQFFDAPNGPSVKQVLIEDEW [c.CH.R.m] | Neither |
| MQVTMKSSAVSGQRVGGARVATRSVRRAQLQVVASSRKQMGRWRSIDAGVDASDDQ [c.CH.R.c] | Chloroplast |
| MQVTMKSSAVSGQRVGRIPVRAIRRAGAAIGRGLRAINIASTAHDVYSFFRPRHRRR [c.SIM.R] | Chloroplast |
| MQVTMKSSAVSGQRVGRIPVRAIRRAGAAIGRGLRAINIASTAHDVYSFFRPRHRRRLTQTAESFRGVSSQFFDAPNGPSVKQVLIEDEW [c.SIM.R.m] | Chloroplast |
| MQVTMKSSAVSGQRVGRIPVRAIRRAGAAIGRGLRAINIASTAHDVYSFFRPRHRRRSVRRAQLQVVASSRKQMGRWRSIDAGVDASDDQ [c.SIM.R.c] | Chloroplast |
| MQVTMKSSAVSGQRVLTQTAESFRGVSSQFFDAPNGPSVKQVLIEDEW [c.-.m] | Neither |
| MQVTMKSSAVSGQRVMGLLLDTLRGAARDIAGIALERLRCRITGCRP [c.R2G.R] | Mitochondria |
| MQVTMKSSAVSGQRVMGLLLDTLRGAARDIAGIALERLRCRITGCRPLTQTAESFRGVSSQFFDAPNGPSVKQVLIEDEW [c.R2G.R.m] | Mitochondria |
| MQVTMKSSAVSGQRVMGLLLDTLRGAARDIAGIALERLRCRITGCRPSVRRAQLQVVASSRKQMGRWRSIDAGVDASDDQ [c.R2G.R.c] | Dual |
| MQVTMKSSAVSGQRVMGWIRDFGRRIERVGQHTRDATIQTIAVAQQAANVAATLRG [c.S1D.R] | Mitochondria |
| MQVTMKSSAVSGQRVMGWIRDFGRRIERVGQHTRDATIQTIAVAQQAANVAATLRGLTQTAESFRGVSSQFFDAPNGPSVKQVLIEDEW [c.S1D.R.m] | Dual |
| MQVTMKSSAVSGQRVMGWIRDFGRRIERVGQHTRDATIQTIAVAQQAANVAATLRGSVRRAQLQVVASSRKQMGRWRSIDAGVDASDDQ [c.S1D.R.c] | Chloroplast |

Same assay, conditions: peptide-Venus reporter construct expressed in Chlamydomonas reinhardtii; manual targeting assignment (Neither / Mitochondria / Chloroplast / Dual; partial = partial targeting)

| Sequence | Localisation |
| --- | --- |
| MQVTMKSSAVSGQRVFLPLLAGLAANFLPKIFCKITRKCSVRRAQLQVVASSRKQMGRWRSIDAGVDASDDQ [c.B1E.K.c] | Chloroplast |
| MQVTMKSSAVSGQRVGIGKFLHSAKKFGKAFVGEIMNS [c.MII.K] | Mitochondria |
| MQVTMKSSAVSGQRVGIGKFLHSAKKFGKAFVGEIMNSLTQTAESFRGVSSQFFDAPNGPSVKQVLIEDEW [c.MII.K.m] | Mitochondria (partial) |
| MQVTMKSSAVSGQRVGIGKFLHSAKKFGKAFVGEIMNSSVRRAQLQVVASSRKQMGRWRSIDAGVDASDDQ [c.MII.K.c] | Chloroplast |
| MQVTMKSSAVSGQRVGIGRFLHSARRFGRAFVGEIMNS [c.MII.R] | Mitochondria |
| MQVTMKSSAVSGQRVGIGRFLHSARRFGRAFVGEIMNSLTQTAESFRGVSSQFFDAPNGPSVKQVLIEDEW [c.MII.R.m] | Dual |
| MQVTMKSSAVSGQRVMGLFSKFNKKKIKSGLIKIIKTAGKEAGLEALRTGIDVIGCKIKGECSVRRAQLQVVASSRKQMGRWRSIDAGVDASDDQ [c.E1S.K.c] | Chloroplast |
| MQVTMKSSAVSGQRVMGLFSRFNRRRIRSGLIRIIRTAGREAGLEALRTGIDVIGCRIRGECSVRRAQLQVVASSRKQMGRWRSIDAGVDASDDQ [c.E1S.R.c] | Chloroplast |
| MQVTMKSSAVSGQRVMKYYGNGVHCTKSGCSVNWGEAFSAGVHRLANGGNGFW [c.LCA.K] | Neither |
| MQVTMKSSAVSGQRVMKYYGNGVHCTKSGCSVNWGEAFSAGVHRLANGGNGFWLTQTAESFRGVSSQFFDAPNGPSVKQVLIEDEW [c.LCA.K.m] | Chloroplast |
| MQVTMKSSAVSGQRVMKYYGNGVHCTKSGCSVNWGEAFSAGVHRLANGGNGFWSVRRAQLQVVASSRKQMGRWRSIDAGVDASDDQ [c.LCA.K.c] | Chloroplast (partial) |
| MQVTMKSSAVSGQRVMKYYGNGVHCTRSGCSVNWGEAFSAGVHRLANGGNGFW [c.LCA.R] | Neither |
| MQVTMKSSAVSGQRVMKYYGNGVHCTRSGCSVNWGEAFSAGVHRLANGGNGFWLTQTAESFRGVSSQFFDAPNGPSVKQVLIEDEW [c.LCA.R.m] | Neither |
| MQVTMKSSAVSGQRVMKYYGNGVHCTRSGCSVNWGEAFSAGVHRLANGGNGFWSVRRAQLQVVASSRKQMGRWRSIDAGVDASDDQ [c.LCA.R.c] | Chloroplast |

Same assay, conditions: targeting of the Venus reporter fused to the peptide, expressed in Chlamydomonas reinhardtii; manual assignment from epifluorescence microscopy; full or partial

| Sequence | Localisation |
| --- | --- |
| MQVTMKSSAVSGQRVFLPLLAGLAANFLPKIFCKITRKCLTQTAESFRGVSSQFFDAPNGPSVKQVLIEDEW [c.B1E.K.m] | Dual |
| MQVTMKSSAVSGQRVFLPLLAGLAANFLPRIFCRITRRC [c.B1E.R] | Mitochondria |
| MQVTMKSSAVSGQRVFLPLLAGLAANFLPRIFCRITRRCLTQTAESFRGVSSQFFDAPNGPSVKQVLIEDEW [c.B1E.R.m] | Dual |
| MQVTMKSSAVSGQRVFLPLLAGLAANFLPRIFCRITRRCSVRRAQLQVVASSRKQMGRWRSIDAGVDASDDQ [c.B1E.R.c] | Chloroplast |
| MQVTMKSSAVSGQRVGIGRFLHSARRFGRAFVGEIMNSSVRRAQLQVVASSRKQMGRWRSIDAGVDASDDQ [c.MII.R.c] | Chloroplast |
| MQVTMKSSAVSGQRVMALWKTMLKKLGTMALHAGKAAFGAAADTISQ [c.DDM.K] | Neither |
| MQVTMKSSAVSGQRVMALWKTMLKKLGTMALHAGKAAFGAAADTISQLTQTAESFRGVSSQFFDAPNGPSVKQVLIEDEW [c.DDM.K.m] | Neither |
| MQVTMKSSAVSGQRVMALWKTMLKKLGTMALHAGKAAFGAAADTISQSVRRAQLQVVASSRKQMGRWRSIDAGVDASDDQ [c.DDM.K.c] | Chloroplast (partial) |
| MQVTMKSSAVSGQRVMGKIPVKAIKKAGAAIGKGLRAINIASTAHDVYSFFKPKHKKK [c.SIM.K] | Chloroplast (partial) |
| MQVTMKSSAVSGQRVMGKIPVKAIKKAGAAIGKGLRAINIASTAHDVYSFFKPKHKKKLTQTAESFRGVSSQFFDAPNGPSVKQVLIEDEW [c.SIM.K.m] | Chloroplast |
| MQVTMKSSAVSGQRVMGKIPVKAIKKAGAAIGKGLRAINIASTAHDVYSFFKPKHKKKSVRRAQLQVVASSRKQMGRWRSIDAGVDASDDQ [c.SIM.K.c] | Chloroplast |
| MQVTMKSSAVSGQRVMGLFSKFNKKKIKSGLIKIIKTAGKEAGLEALRTGIDVIGCKIKGEC [c.E1S.K] | Neither |
| MQVTMKSSAVSGQRVMGLFSKFNKKKIKSGLIKIIKTAGKEAGLEALRTGIDVIGCKIKGECLTQTAESFRGVSSQFFDAPNGPSVKQVLIEDEW [c.E1S.K.m] | Chloroplast |
| MQVTMKSSAVSGQRVMGLFSRFNRRRIRSGLIRIIRTAGREAGLEALRTGIDVIGCRIRGEC [c.E1S.R] | Chloroplast |
| MQVTMKSSAVSGQRVMGLFSRFNRRRIRSGLIRIIRTAGREAGLEALRTGIDVIGCRIRGECLTQTAESFRGVSSQFFDAPNGPSVKQVLIEDEW [c.E1S.R.m] | Chloroplast |
| MQVTMKSSAVSGQRVMGLLLDTLKGAAKDIAGIALEKLKCKITGCKP [c.R2G.K] | Mitochondria (partial) |
| MQVTMKSSAVSGQRVMGLLLDTLKGAAKDIAGIALEKLKCKITGCKPLTQTAESFRGVSSQFFDAPNGPSVKQVLIEDEW [c.R2G.K.m] | Mitochondria |
| MQVTMKSSAVSGQRVMGLLLDTLKGAAKDIAGIALEKLKCKITGCKPSVRRAQLQVVASSRKQMGRWRSIDAGVDASDDQ [c.R2G.K.c] | Mitochondria (partial) |
| MQVTMKSSAVSGQRVMGWIRDFGKRIERVGQHTRDATIQTIAVAQQAANVAATLKG [c.S1D.K] | Mitochondria |
| MQVTMKSSAVSGQRVMGWIRDFGKRIERVGQHTRDATIQTIAVAQQAANVAATLKGLTQTAESFRGVSSQFFDAPNGPSVKQVLIEDEW [c.S1D.K.m] | Dual |
| MQVTMKSSAVSGQRVMGWIRDFGKRIERVGQHTRDATIQTIAVAQQAANVAATLKGSVRRAQLQVVASSRKQMGRWRSIDAGVDASDDQ [c.S1D.K.c] | Chloroplast |
